Laboratory results as given in paper PMC4359082 (Nature, 2014).

Tests used:
[1] = test system: mouse peritoneal mast cells; assay: Mouse peritoneal mast cell histamine release assay; type: cell-based; conditions: 5 minutes, room temperature; HTRF histamine assay
[2] = Drug preparation and storage: stability of solutions; type: physicochemical; conditions: solutions prepared on the day of the experiment
MrgprB2 = target: T1, MrgprB2 (Mus musculus, UniProt Q3KNA1); assay: Calcium imaging in HEK293 cells expressing MrgprB2; type: cell-based; conditions: HEK293 cells heterologously expressing MrgprB2
T1 sequence (Q3KNA1 1-338): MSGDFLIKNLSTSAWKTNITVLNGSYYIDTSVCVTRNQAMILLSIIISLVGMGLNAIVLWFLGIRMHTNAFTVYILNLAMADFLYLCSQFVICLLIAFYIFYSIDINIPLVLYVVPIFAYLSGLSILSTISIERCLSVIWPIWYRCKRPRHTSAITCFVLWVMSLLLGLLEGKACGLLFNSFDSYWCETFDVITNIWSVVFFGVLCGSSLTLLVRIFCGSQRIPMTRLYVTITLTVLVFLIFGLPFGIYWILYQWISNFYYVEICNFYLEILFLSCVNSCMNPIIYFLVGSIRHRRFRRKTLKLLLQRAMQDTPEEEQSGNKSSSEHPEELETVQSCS

Row | Compound | histamine release from WT peritoneal mast cells (MrgprB2MUT mast cells released substantially less) [1] | stability of potency of drug solutions [2] | response of MrgprB2-HEK cells ([Ca2+]i) (MrgprB2)
1 | COc1ccc(CC2c3cc(OC)c(OC)cc3CC[N+]2(C)CCC(=O)OCCCCCOC(=O)CC[N+]2(C)CCc3cc(OC)c(OC)cc3C2Cc2ccc(OC)c(OC)c2)cc1OC (stereo not shown) [Atracurium, atracurium] | induced histamine release | susceptible to oxidation and/or freeze-thaw effects | 
2 | CCN(CC)CCCC(C)Nc1ccnc2cc(Cl)ccc12 (stereo not shown) [CQ, chloroquine] |  |  | no response
3 | O=C(O)c1cn(C2CC2)c2cc(N3CCNCC3)c(F)cc2c1=O [Ciprofloxacin, ciprofloxacin] | induced histamine release |  | 
4 | COc1cc2c(cc1OC)[C@@H](Cc1cc(OC)c(OC)c(OC)c1)[N+](C)(CCCOC(=O)CC/C=C/CCC(=O)OCCC[N+]1(C)CCc3cc(OC)c(OC)cc3[C@H]1Cc1cc(OC)c(OC)c(OC)c1)CC2 (stereo partly shown) [mivacurium] |  | susceptible to oxidation and/or freeze-thaw effects | 
5 | COc1cc2c3cc1Oc1cc(ccc1O)C[C@@H]1c4c(cc(OC)c(O)c4Oc4ccc(cc4)C[C@@H]3N(C)CC2)CC[N+]1(C)C [tubocurarine] |  | susceptible to oxidation and/or freeze-thaw effects | 
6 | icatibant | induced histamine release |  | 
